Reference: the supplement of paper PMC10307832

Legend:
Assay in all cases: relative viability (nuclei count vs DMSO), 5 days (fraction); higher = more cells survive
[1] = compound: CC1=C(C(=NN1)C)CC2=C(C3=C(S2)N(C(=O)N(C3=O)C)CC(C)C)C(=O)N4C[C@@H](CO4)O + O=C(CCCCCCC(=O)Nc1ccccc1)NO [Vorinostat] (partner 1 µM)
Method in brief: (§1)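 Relative viability equals treated-well nuclei counts divided by vehicle-well nuclei counts. Counts came from 4× images of lung cancer cell lines grown in 1536-well plates for 5 days after pin-tool dosing on the day after seeding. Dosing used one drug alone or a fixed anchor-drug dose plus five library-drug doses (not always all listed) in √10 steps, and values are medians of duplicate plates.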

[2] = compound: Cc1ccccc1C(C(=O)NC1CCCCC1)N(C(=O)Cn1ccnc1C)c1cccc(F)c1 [IDH-C35] + Nc1ncn([C@H]2C[C@H](O)[C@@H](CO)O2)c(=O)n1 [Decitabine] (partner 2 µM)
Method in brief: as §1

[3] = compound: Cc1ccccc1C(C(=O)NC1CCCCC1)N(C(=O)Cn1ccnc1C)c1cccc(F)c1 [IDH-C35] + O=C(CCCCCCC(=O)Nc1ccccc1)NO [Vorinostat] (partner 1 µM)
Method in brief: as §1

[4] = compound: Cc1ccccc1C(C(=O)NC1CCCCC1)N(C(=O)Cn1ccnc1C)c1cccc(F)c1 [IDH-C35] + Cc1nc(Nc2ncc(C(=O)Nc3c(C)cccc3Cl)s2)cc(N2CCN(CCO)CC2)n1 [Dasatinib] (partner 0.075 µM)
Method in brief: as §1

| Cell Line | relative viability ([1]; first compound 0.0025 µM) | relative viability ([1]; first compound 0.007906 µM) | relative viability ([1]; first compound 0.025 µM) | relative viability ([1]; first compound 0.07906 µM) | relative viability ([1]; first compound 0.25 µM) | relative viability ([2]; first compound 0.08 µM) | relative viability ([2]; first compound 0.253 µM) | relative viability ([2]; first compound 0.8 µM) | relative viability ([2]; first compound 2.53 µM) | relative viability ([2]; first compound 8 µM) | relative viability ([3]; first compound 0.08 µM) | relative viability ([3]; first compound 0.253 µM) | relative viability ([3]; first compound 0.8 µM) | relative viability ([3]; first compound 2.53 µM) | relative viability ([3]; first compound 8 µM) | relative viability ([4]; first compound 0.08 µM) | relative viability ([4]; first compound 0.253 µM) | relative viability ([4]; first compound 0.8 µM) | relative viability ([4]; first compound 2.53 µM) | relative viability ([4]; first compound 8 µM) |
| --- | --- | --- | --- | --- | --- | --- | --- | --- | --- | --- | --- | --- | --- | --- | --- | --- | --- | --- | --- | --- |
| LOU-NH91 | 1.03 | 0.875 | 0.939 | 1.07 | 1 | 0.808 | 0.799 | 0.795 | 0.767 | 0.799 | 0.916 | 0.946 | 0.894 | 0.8 | 0.888 | 0.554 | 0.538 | 0.558 | 0.531 | 0.557 |
| ChaGo-K-1 | 0.73 | 0.811 | 0.755 | 0.725 | 0.787 | 0.507 | 0.531 | 0.535 | 0.533 | 0.531 | 0.758 | 0.814 | 0.8 | 0.586 | 0.68 | 0.64 | 0.615 | 0.598 | 0.63 | 0.601 |
| PC-14 | 0.824 | 0.885 | 0.692 | 0.824 | 0.982 | 0.211 | 0.206 | 0.239 | 0.226 | 0.214 | 0.749 | 0.81 | 0.748 | 0.76 | 0.649 | 0.302 | 0.277 | 0.271 | 0.247 | 0.221 |
| NCI-H1437 | 0.796 | 0.882 | 0.833 | 0.868 | 0.906 | 0.56 | 0.56 | 0.576 | 0.572 | 0.525 | 0.931 | 0.851 | 0.869 | 0.843 | 0.858 | 0.442 | 0.448 | 0.432 | 0.314 | 0.308 |
| NCI-H460 | 0.859 | 0.689 | 0.634 | 0.723 | 0.857 | 0.541 | 0.46 | 0.482 | 0.467 | 0.466 | 0.723 | 0.693 | 0.676 | 0.725 | 0.649 | 0.379 | 0.512 | 0.49 | 0.479 | 0.495 |
| NCI-H1666 | 1.08 | 1.12 | 1.03 | 1.04 | 1.05 | 0.676 | 0.801 | 0.747 | 0.606 | 0.655 | 1.04 | 0.997 | 1.08 | 1.04 | 0.971 | 0.784 | 0.807 | 0.794 | 0.795 | 0.728 |
| NCI-H1651 | 0.504 | 0.601 | 0.505 | 0.545 | 0.581 | 0.528 | 0.629 | 0.593 | 0.615 | 0.555 | 0.539 | 0.592 | 0.531 | 0.513 | 0.543 | 0.416 | 0.398 | 0.426 | 0.404 | 0.382 |
| NCI-H1755 | 0.792 | 0.781 | 0.724 | 0.632 | 0.719 | 0.685 | 0.639 | 0.757 | 0.708 | 0.708 | 0.738 | 0.8 | 0.82 | 0.809 | 0.725 | 0.374 | 0.409 | 0.433 | 0.409 | 0.465 |
| NCI-H661 | 0.787 | 0.863 | 0.746 | 0.805 | 0.834 | 0.566 | 0.541 | 0.546 | 0.535 | 0.602 | 0.753 | 0.816 | 0.778 | 0.756 | 0.721 | 0.898 | 0.945 | 0.868 | 0.974 | 0.79 |
| HARA | 0.511 | 0.657 | 0.653 | 0.516 | 0.509 | 0.434 | 0.438 | 0.625 | 0.504 | 0.505 | 0.624 | 0.436 | 0.517 | – | 0.525 | 0.298 | 0.271 | 0.294 | – | 0.328 |
| NCI-H596 | 0.783 | 0.652 | 0.625 | 0.697 | 0.479 | 1.06 | 1.04 | 0.933 | 0.853 | 1.02 | 0.733 | 0.584 | 0.721 | 0.725 | 0.604 | 0.588 | 0.759 | 0.693 | – | 0.56 |
| NCI-H23 | 0.76 | 0.627 | 0.638 | 0.587 | 0.737 | 0.332 | 0.35 | 0.336 | 0.332 | 0.312 | 0.609 | 0.582 | 0.578 | 0.641 | 0.636 | 0.779 | 0.718 | 0.738 | 0.901 | 0.864 |
| LCLC-97TM1 | 0.984 | 1.03 | 0.575 | 0.72 | 0.776 | 0.219 | 0.247 | 0.255 | – | 0.238 | 0.706 | 0.729 | 0.67 | – | 0.436 | 0.87 | 0.796 | 0.822 | 0.818 | 0.809 |
| EPLC-272H | 0.454 | 0.447 | 0.61 | 0.438 | 0.351 | 0.357 | 0.392 | 0.344 | – | 0.384 | 0.314 | 0.406 | 0.515 | 0.494 | 0.403 | 0.432 | 0.357 | 0.506 | 0.653 | 0.323 |
| NCI-H522 | 0.963 | 1.03 | 0.682 | 0.551 | 0.551 | 0.604 | 0.795 | 0.72 | 0.652 | 0.716 | 0.953 | 1.12 | 0.896 | 0.872 | 0.883 | 0.977 | 0.976 | 0.858 | 1.01 | 0.905 |
| NCI-H1915 | 0.573 | 0.541 | 0.488 | 0.51 | 0.588 | 0.278 | 0.248 | 0.293 | 0.281 | 0.277 | 0.499 | 0.52 | 0.488 | 0.451 | 0.574 | 0.328 | 0.308 | 0.304 | 0.326 | 0.309 |
| NCI-H2405 | 1.13 | 1.07 | 0.849 | 0.96 | 0.888 | 0.701 | 0.751 | 0.652 | 0.775 | 0.668 | 1.08 | 0.956 | 0.968 | 1.24 | 1.02 | 0.209 | 0.212 | 0.213 | 0.206 | 0.184 |
